What was measured:
[1] = target: human recombinant FGFR4 catalytic structural domain protein (Homo sapiens (Human), UniProt P22455); test: FGFR4 activity inhibition test (HTRF kinase assay); format: biochemical; details: 90 μM ATP
Description: FGFR4 Activity Inhibition Test
The influence of the compound according to the present invention on the activity of fibroblast growth factor receptor 4 (FGFR4) was evaluated by an in vitro kinase assay experiment.
(§1) The experimental method is summarized as follows:
The in vitro activity of FGFR4 was determined by assaying the phosphorylation level of the substrate in the kinase reaction, by means of an HTRF kinase assay kit.
(§2) If the IC50 value of the compound was very low, the initial concentration of the compound could be reduced.
(§3) After 60 min, the enzyme reaction was terminated by EDTA in the assay solution, and the phosphorylated products were identified by both the Eu^3+ labeled cage-shaped antibody (donor) and the streptavidin labeled XL665 antibody (receptor) at the same time. […] The inhibition percentage of the compound against FGFR4 activity could be calculated with the following formula: Inhibition percentage=100−100*(signalcompound−signalnegative control)/(signalpositive control−signalnegative control)
(§4) The IC50 value of the compound was calculated by the following formula, from 10 concentration points, with XLfit (ID Business Solutions Ltd., UK): Y=Bottom+(Top−Bottom)/(1+10^((Log IC50−X)*slope factor)) Where, Y is the inhibition percentage, Bottom is the bottom plateau of the curve (the bottom plateau of the S-type curve), Top is the top plateau of the curve (the top plateau of the S-type curve), and X is the log value of the compound concentration to be measured.

[2] = target: human recombinant FGFR2 catalytic structural domain protein (Homo sapiens (Human), UniProt P21802); test: FGFR2 activity inhibition test (HTRF kinase assay); format: biochemical; details: 50 μM ATP
human recombinant FGFR2 catalytic structural domain protein, sequence (P21802 400-821): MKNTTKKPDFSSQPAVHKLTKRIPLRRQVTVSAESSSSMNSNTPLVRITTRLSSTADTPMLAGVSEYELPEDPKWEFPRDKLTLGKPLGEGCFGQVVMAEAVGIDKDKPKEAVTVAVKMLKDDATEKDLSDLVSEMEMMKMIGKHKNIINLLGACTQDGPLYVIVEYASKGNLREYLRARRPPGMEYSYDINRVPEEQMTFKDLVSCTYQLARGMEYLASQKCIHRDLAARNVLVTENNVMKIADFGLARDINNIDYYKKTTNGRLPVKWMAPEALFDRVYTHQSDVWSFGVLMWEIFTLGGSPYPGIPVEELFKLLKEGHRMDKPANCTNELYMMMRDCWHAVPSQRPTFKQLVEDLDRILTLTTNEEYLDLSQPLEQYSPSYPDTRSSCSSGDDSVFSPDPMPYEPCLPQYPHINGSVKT
Description: FGFR2 Activity Inhibition Test
The influence of the compound according to the present invention on the activity of fibroblast growth factor receptor 2 (FGFR2) was evaluated by an in vitro kinase assay experiment.
as §1
The in vitro activity of FGFR2 was determined by assaying the phosphorylation level of the substrate in the kinase reaction, by means of an HTRF kinase assay kit. The reaction buffer comprised the following components: 5-fold diluted Enzymatic buffer/kinase 5× (Cisbio, Catalog number 62EZBFDD) (main ingredient: 50 mM HEPES, pH 7.0), 5 mM MgCl2, 1 mM DTT; the human recombinant FGFR2 catalytic structural domain protein (amino acids 400-821) was commercially available from Beijing Sino Biological Inc., diluted with the reaction buffer to a 0.045 ng/μL kinase solution; the substrate reaction solution comprised a biotin labeled tyrosine kinase substrate diluted with the reaction buffer to 800 nM (Cisbio, catalog number 62TK0PEC), and 50 μM ATP, and the assay solution comprised an Eu^3+ labeled cage-shaped antibody (Cisbio, Catalog number 61T66KLB) diluted with the assay buffer (Cisbio, Catalog number 62SDBRDF) to 0.125 ng/μL, and 50 nM streptavidin labeled XL665 (Cisbio, Catalog number 610SAXLB).
(§5) The compound was dissolved and diluted in 100% DMSO to 100 μM, then 4-fold-series diluted with DMSO to a minimum concentration of 0.0061 μM, and each concentration point was then 40-fold diluted with the reaction buffer. If the IC50 value of the compound was very low, the initial concentration of the compound could be reduced.
(§6) 4 μL of a compound solution and 2 μL of an FGFR2 kinase solution were added into a 384 well assay plate (Thermo, Catalog number 264706), mixed uniformly and then incubated for 15 min at room temperature; subsequently, 4 μL of the substrate reaction solution was added therein, and the reaction mixture was incubated for 60 min at room temperature; and then 10 μL of an assay solution of an equal volume to the reaction was added therein and mixed uniformly, followed by placement at room temperature. After 60 min, the enzyme reaction was terminated by EDTA in the assay solution, and the phosphorylated products were identified by both the Eu^3+ labeled cage-shaped antibody (donor) and the streptavidin labeled XL665 antibody (receptor) at the same time. After the excitation with laser, the donors and receptors that were close to each other experienced energy resonance transfer, and the energy transferred from the donor (620 nm) to the receptor (665 nm) could be detected with Envision. The ratio of 665/620 is in positive correlation to the phosphorylation degree of the substrate, thereby to detect the FGFR2 kinase activity. […] The inhibition percentage of the compound against FGFR2 activity could be calculated with the following formula: Inhibition percentage=100−100*(signalcompound−signalnegative control)/(signalpositive control−signalnegative control)
(§7) The IC50 value of the compound was calculated by the following formula, from 10 concentration points, with XLfit (ID Business Solutions Ltd., UK): Y=Bottom+(Top−Bottom)/(1+10^((Log IC50−X)*slope factor))
(§8) Where, Y is the inhibition percentage, Bottom is the bottom plateau of the curve (the bottom plateau of the S-type curve), Top is the top plateau of the curve (the top plateau of the S-type curve), and X is the log value of the compound concentration to be measured.

[3] = target: human recombinant FGFR1 catalytic structural domain protein (Homo sapiens (Human), UniProt P11362); test: FGFR1 activity inhibition test (HTRF kinase assay); format: biochemical; details: 40 μM ATP
human recombinant FGFR1 catalytic structural domain protein, sequence (P11362 other isoform, or with tags, fused parts or gaps): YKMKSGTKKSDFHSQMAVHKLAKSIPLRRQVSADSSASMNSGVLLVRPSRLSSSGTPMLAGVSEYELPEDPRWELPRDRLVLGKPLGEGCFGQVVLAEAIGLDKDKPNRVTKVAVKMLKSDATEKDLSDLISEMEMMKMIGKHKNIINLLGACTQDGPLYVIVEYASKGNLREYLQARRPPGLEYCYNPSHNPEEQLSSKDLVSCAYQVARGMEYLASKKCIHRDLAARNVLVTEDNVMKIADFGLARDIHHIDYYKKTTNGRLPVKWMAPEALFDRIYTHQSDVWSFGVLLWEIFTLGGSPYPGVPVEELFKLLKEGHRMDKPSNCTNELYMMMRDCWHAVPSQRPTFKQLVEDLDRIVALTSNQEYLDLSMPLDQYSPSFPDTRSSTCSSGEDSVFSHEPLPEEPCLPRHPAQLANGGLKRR
Description: FGFR1 Activity Inhibition Test
The influence of the compound according to the present invention on the activity of fibroblast growth factor receptor 1 (FGFR1) was evaluated by an in vitro kinase assay experiment.
as §1
The in vitro activity of FGFR1 was determined by assaying the phosphorylation level of the substrate in the kinase reaction, by means of an HTRF kinase assay kit.
as §2
as §3, with “FGFR1” for “FGFR4”
as §7, §8

[4] = target: human recombinant FGFR3 catalytic structural domain protein (Homo sapiens (Human), UniProt P22607); test: FGFR3 activity inhibition test (HTRF kinase assay); format: biochemical; details: 90 μM ATP
human recombinant FGFR3 catalytic structural domain protein, sequence (P22607 399-806): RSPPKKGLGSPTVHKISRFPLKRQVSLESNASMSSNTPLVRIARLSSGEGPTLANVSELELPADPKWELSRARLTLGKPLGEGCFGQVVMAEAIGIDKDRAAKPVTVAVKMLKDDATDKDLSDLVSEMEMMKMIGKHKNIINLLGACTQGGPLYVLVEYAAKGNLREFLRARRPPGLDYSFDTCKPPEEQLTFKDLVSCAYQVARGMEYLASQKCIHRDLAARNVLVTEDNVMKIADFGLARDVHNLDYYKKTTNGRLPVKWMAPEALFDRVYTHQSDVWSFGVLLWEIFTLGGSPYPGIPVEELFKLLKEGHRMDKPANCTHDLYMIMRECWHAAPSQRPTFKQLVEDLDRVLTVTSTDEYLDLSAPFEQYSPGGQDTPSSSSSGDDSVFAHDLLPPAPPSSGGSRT
Description: FGFR3 Activity Inhibition Test
The influence of the compound according to the present invention on the activity of fibroblast growth factor receptor 3 (FGFR3) was evaluated by an in vitro kinase assay experiment.
as §1
The in vitro activity of FGFR3 was determined by assaying the phosphorylation level of the substrate in the kinase reaction, by means of an HTRF kinase assay kit. The reaction buffer comprised the following components: 5-fold diluted Enzymatic buffer/kinase 5× (Cisbio, Catalog number 62EZBFDD) (main ingredient: 50 mM HEPES, pH 7.0), 5 mM MgCl2, 1 mM DTT; the human recombinant FGFR3 catalytic structural domain protein (amino acids 399-806) was commercially available from Sino Biological Inc., diluted with the reaction buffer to a 0.3 ng/μL kinase solution; the substrate reaction solution comprised a biotin labeled tyrosine kinase substrate diluted with the reaction buffer to 1000 nM (Cisbio, catalog number 62TK0PEC), and 90 μM ATP, and the assay solution comprised an Eu^3+ labeled cage-shaped antibody (Cisbio, Catalog number 61T66KLB) diluted with the assay buffer (Cisbio, Catalog number 62SDBRDF) to 0.125 ng/μL, and 62.5 nM streptavidin labeled XL665 (Cisbio, Catalog number 610SAXLB).
as §5
as §6, with “an FGFR3” for “an FGFR2”, “the FGFR3” for “the FGFR2”
as §4

Hep3B cells = test: Hep3B cell proliferation inhibition test (CellTiter-Glo); format: cell-based; details: Homo sapiens, 72 h, CTG
Description: Hep3B Cell Proliferation Inhibition Test
The influence of the compound according to the present invention on Hep3B cell proliferation was evaluated by a luminescence cell viability test.
as §1
A CellTilter-Glo (CTG) assay kit was used to detect an indicator ATP of active cellular metabolism by means of a unique stable luciferase, and the luminous signal produced in the test was in direct proportion to the count of active cells in the medium, thereby to detect the cell proliferation of Hep3B.
A CellTilter-Glo agent (Promega, G7572) was comprised of a CellTilter-Glo lyophilized powder and a CellTilter-Glo buffer, and the lyophilized powder was dissolved into the buffer in use.
Hep3B cells (ATCC, HB-8064) (cell source: Shanghai Academy of Life Sciences, Chinese Academy of Sciences) were cultured in a DMEM complete medium (Thermofisher, 11995073) containing a 10% FBS (GBICO, 10099-141) and 100 units/ml mycillin mixed solution (Thermofisher, 15140122). When the cells coverage reached 80-90% in the culture vessel, after the cells were digested and blown about with 0.25% pancreatin (containing EDTA) (Thermofisher, 25200056), they were planted in a white 384 well plate (Thermofisher, 164610), with 1000 cells in each well (27 μl of a DMEM complete medium), and then the 384 well plate was placed into an incubator at 37° C. and 5% CO2 and cultured overnight (18-20 h). The compound was dissolved and diluted in 100% DMSO to 100 μM, then 4-fold-series diluted with DMSO to a minimum concentration of 0.0061 μM, and each concentration point was 50-fold diluted with the FBS-free DMEM medium. If the IC50 value of the compound was very low, the initial concentration of the compound could be reduced. […] This 384 well plate was placed into an incubator at 37° C. and 5% CO2 for further culture, taken out after 72 h, and stood at room temperature for 30 min. The CTG agent was also taken out and balanced to room temperature. 15 μl of the CTG agent was added into each well, and placed onto a shaker to be gently shaken for 3 min to ensure sufficient cell lysis. After 10 min of standing to allow the luminescence signal to be stable, the luminescence signal was read with EnVision (Perkin Elmer).
The inhibition percentage of the compound against Hep3B cell proliferation could be calculated with the following formula: Inhibition percentage=100−100*(signalcompound−signalnegative control)/(signalpositive control−signalnegative control)
The IC50 value of the compound was calculated by the following formula, from 8 concentration points, with XLfit (ID Business Solutions Ltd., UK): Y=Bottom+(Top−Bottom)/(1+10^((Log IC50−X)*slope factor))
as §8

human recombinant FGFR4 catalytic structural domain protein, sequence (P22455 460-802): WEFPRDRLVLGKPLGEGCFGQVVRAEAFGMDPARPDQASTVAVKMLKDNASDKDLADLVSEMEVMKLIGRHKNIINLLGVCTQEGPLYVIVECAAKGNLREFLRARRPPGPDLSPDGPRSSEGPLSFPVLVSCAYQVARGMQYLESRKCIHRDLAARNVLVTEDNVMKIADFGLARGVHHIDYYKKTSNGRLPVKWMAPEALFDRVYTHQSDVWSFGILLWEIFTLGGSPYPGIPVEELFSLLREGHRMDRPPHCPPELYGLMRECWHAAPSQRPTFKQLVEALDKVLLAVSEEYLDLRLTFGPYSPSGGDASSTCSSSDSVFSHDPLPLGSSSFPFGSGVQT

| Compound | IC50 [1] | IC50 [2] | IC50 [3] | IC50 [4] | IC50 (Hep3B cells) |
| --- | --- | --- | --- | --- | --- |
| CN(C(=O)Nc1cc(Cl)c(C#N)cn1)c1ccc(CN2CCOCC2=O)c(C=O)n1 [Compound 11] | 10 to 100 nM | > 1000 nM | > 1000 nM | > 1000 nM | – |
| CC(C)Oc1cc(NC(=O)N(C)c2ccc(CN3CCOCC3=O)c(C=O)n2)ncc1C#N [Compound 13] | 10 to 100 nM | > 1000 nM | > 1000 nM | > 1000 nM | – |
| COCCOc1cc(NC(=O)N(C)c2ccc(CN3CCN(C)CC3=O)c(C=O)n2)ncc1C#N [Compound 20, 3-(5-cyano-4-(2-methoxyethoxy)pyrid-2-yl)-1-(6-formyl-5-((4-methyl-2-carbonylpiperazin-1-yl)methyl)pyrid-2-yl)-1-methylurea] | < 10 nM | > 1000 nM | > 1000 nM | > 1000 nM | – |
| COCCNc1cc(NC(=O)N(C)c2ccc(CO)c(C=O)n2)ncc1C#N [Compound 21, 3-(5-cyano-4-((2-methoxyethyl)amino)pyrid-2-yl)-1-(6-formyl-5-(hydroxymethyl)pyrid-2-yl)-1-methylurea] | 100 to 1000 nM | > 1000 nM | > 1000 nM | > 1000 nM | – |
| CN(C(=O)Nc1cc(Cl)c(C#N)cn1)c1ccc(CO)c(C=O)n1 [Compound 22, 3-(4-chloro-5-cyanopyrid-2-yl)-1-(6-formyl-5-(hydroxymethyl)pyrid-2-yl)-1-methylurea] | 100 to 1000 nM | > 1000 nM | > 1000 nM | > 1000 nM | – |
| COCCNc1cc(NC(=O)N(C)c2ccc(C3CCNCC3)c(C=O)n2)ncc1C#N [Compound 23, 3-(5-cyano-4-((2-methoxyethyl)amino)pyrid-2-yl)-1-(6-formyl-5-(piperidin-4-yl)pyrid-2-yl)-1-methylurea] | 10 to 100 nM | > 1000 nM | > 1000 nM | – | 50 to 100 nM |
| C[C@H](CO)Oc1cc(NC(=O)N(C)c2ccc(CN3CCN(C)CC3=O)c(C=O)n2)ncc1C#N [Compound 25, (R)-3-(5-cyano-4-((1-hydroxyprop-2-yl)oxy)pyrid-2-yl)-1-(6-formyl-5-((4-methyl-2-carbonylpiperazin-1-yl)methyl)pyrid-2-yl)-1-methylurea] | < 10 nM | > 1000 nM | > 1000 nM | > 1000 nM | – |

Source: patent US10590109B2, “Heterocyclic compounds used as FGFR inhibitors” (Nanjing InnoCare Pharma Tech Co., Ltd., priority 2016, dated 2020)
